Experimental data as given in patent publication US7998995B2 (Exelixis Patent Company LLC, priority 2006, dated 2011).

Tests used:
[1] = system: T1, LXR; assay: Measured EC50 or IC50 for LXR (LXRα and/or LXRβ; assay and subtype not given); settings: IC50 or EC50 class, subtype not specified
T1 construct: fused on or other part: GST fused to the LBD in the FRET assay
Protocol: (§1) Measured EC50 or IC50 for LXR, and FXR for Compounds of the Invention
(§2) LXR and FXR activities for various compounds of the invention are presented in the following table; those compounds with EC50 or IC50 values <10 μM for at least one of LXRα, LXRβ or FXR are considered to be active. In the following Table, IC50 or EC50 data is represented as follows: A<1 μM, B=1-10 μm, and C>10 μM.

[2] = molecular target: T2, FXR (Homo sapiens, UniProt Q96RI1); assay: Measured EC50 or IC50 for FXR (assay not given); settings: IC50 or EC50 class; assay not specified
T2 sequence (Q96RI1 1-472 isoform Q96RI1-2): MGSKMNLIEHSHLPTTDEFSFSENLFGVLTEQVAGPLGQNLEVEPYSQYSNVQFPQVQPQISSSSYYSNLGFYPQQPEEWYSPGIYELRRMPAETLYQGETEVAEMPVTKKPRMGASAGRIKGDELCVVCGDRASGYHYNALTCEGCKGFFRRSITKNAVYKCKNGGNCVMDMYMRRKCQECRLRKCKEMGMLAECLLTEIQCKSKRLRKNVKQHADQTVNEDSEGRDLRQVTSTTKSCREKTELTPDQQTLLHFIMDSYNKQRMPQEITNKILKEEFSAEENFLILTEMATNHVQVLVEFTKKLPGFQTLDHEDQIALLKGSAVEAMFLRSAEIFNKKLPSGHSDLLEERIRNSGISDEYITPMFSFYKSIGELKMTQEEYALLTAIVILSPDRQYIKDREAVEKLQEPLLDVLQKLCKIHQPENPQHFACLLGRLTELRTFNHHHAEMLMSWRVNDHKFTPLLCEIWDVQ
Protocol: as §1, §2

Row | Structure (SMILES) | EC50 [1] | EC50 [2]
1 | CC(C)(O)c1cc(COc2ccc(-c3ccc(C(=O)O)cc3Cl)cc2)n(-c2c(Cl)cccc2Cl)n1 [Example 906, 2-chloro-4′-({[1-(2,6-dichlorophenyl)-3-(1-hydroxy-1-methylethyl)-1H-pyrazol-5-yl]methyl}oxy)biphenyl-4-carboxylic acid] | 1000 to 10000 nM | 1000 to 10000 nM
2 | CC(C)c1cc(COc2ccc(-c3ccc(C(=O)O)cc3Cl)cc2)n(-c2c(Cl)cccc2Cl)n1 [Example 907, 2-chloro-4′-({[1-(2,6-dichlorophenyl)-3-(1-methylethyl)-1H-pyrazol-5-yl]methyl}oxy)biphenyl-4-carboxylic acid] | 1000 to 10000 nM | < 1000 nM
3 | O=C(O)c1ccc(-c2ccc(OCc3cc(C(F)(F)F)nn3-c3c(Cl)cccc3Cl)cc2)cc1 [Example 921, 4′-({[1-(2,6-dichlorophenyl)-3-(trifluoromethyl)-1H-pyrazol-5-yl]methyl}oxy)biphenyl-4-carboxylic acid] | > 10000 nM | 1000 to 10000 nM
4 | O=C(O)c1ccc(-c2ccc(OCc3cc(C(F)(F)F)nn3-c3c(Cl)cccc3Cl)cc2)c(Cl)c1 [Example 946, 2-chloro-4′-({[1-(2,6-dichlorophenyl)-3-(trifluoromethyl)-1H-pyrazol-5-yl]methyl}oxy)biphenyl-4-carboxylic acid] | < 1000 nM | 1000 to 10000 nM
5 | CC(C)c1cc(COc2ccc(-c3ccc(C(=O)O)cc3Cl)cc2)n(-c2c(Cl)cccc2Cl)n1 [Example 947, 2-chloro-4′-({[1-(2,6-dichlorophenyl)-3-(1-methylethyl)-1H-pyrazol-5-yl]methyl}oxy)biphenyl-4-carboxylic acid] | < 1000 nM | < 1000 nM
6 | CC(C)(O)c1cc(-c2ccc(-c3cccc(S(C)(=O)=O)c3)s2)n(-c2c(F)cccc2F)n1 [Example 948, 2-[1-(2,6-difluorophenyl)-5-{5-[3-(methylsulfonyl)phenyl]-2-thienyl}-1H-pyrazol-3-yl]propan-2-ol] | < 1000 nM | 1000 to 10000 nM
7 | CC(C)(O)c1cc(-c2ccc(-c3cccc(S(C)(=O)=O)c3)s2)n(-c2c(Cl)cccc2Cl)n1 [Example 949, 2-[1-(2,6-dichlorophenyl)-5-{5-[3-(methylsulfonyl)phenyl]-2-thienyl}-1H-pyrazol-3-yl]propan-2-ol] | < 1000 nM | 1000 to 10000 nM
8 | CC(C)(O)c1cc(-c2ccc(-c3cccc(S(C)(=O)=O)c3)s2)n(-c2c(F)cccc2Cl)n1 [Example 950, 2-[1-(2-chloro-6-fluorophenyl)-5-{5-[3-(methylsulfonyl)phenyl]-2-thienyl}-1H-pyrazol-3-yl]propan-2-ol] | < 1000 nM | 1000 to 10000 nM
9 | CC(C)(O)c1cc(-c2ccc(-c3cccc(S(C)(=O)=O)c3)s2)n(-c2c(F)cccc2C(F)(F)F)n1 [Example 951] | < 1000 nM | 1000 to 10000 nM
10 | Cc1cccc(Cl)c1-n1nc(C(C)(C)O)cc1-c1ccc(-c2cccc(S(C)(=O)=O)c2)s1 [Example 952, 2-[1-(2-chloro-6-methylphenyl)-5-{5-[3-(methylsulfonyl)phenyl]-2-thienyl}-1H-pyrazol-3-yl]propan-2-ol] | < 1000 nM | 1000 to 10000 nM
11 | CC(C)(O)c1nn(-c2c(Cl)cccc2Cl)c(-c2ccc(-c3cccc(S(C)(=O)=O)c3)s2)c1Cl [Example 953, 2-[4-chloro-1-(2,6-dichlorophenyl)-5-{5-[3-(methylsulfonyl)phenyl]-2-thienyl}-1H-pyrazol-3-yl]propan-2-ol] | < 1000 nM | 1000 to 10000 nM
12 | CC(C)(O)c1nn(-c2c(F)cccc2Cl)c(-c2ccc(-c3cccc(S(C)(=O)=O)c3)s2)c1Cl [Example 954, 2-[4-chloro-1-(2-chloro-6-fluorophenyl)-5-{5-[3-(methylsulfonyl)phenyl]-2-thienyl}-1H-pyrazol-3-yl]propan-2-ol] | < 1000 nM | 1000 to 10000 nM
13 | CC(C)(O)c1cc(-c2ccc(-c3cccc(S(C)(=O)=O)c3)s2)n(-c2c(Cl)cncc2Cl)n1 [Example 955, 2-[1-(3,5-dichloropyridin-4-yl)-5-{5-[3-(methylsulfonyl)phenyl]-2-thienyl}-1H-pyrazol-3-yl]propan-2-ol] | < 1000 nM | 1000 to 10000 nM
14 | CC(C)(O)c1cc(-c2ccc(-c3cccc(S(C)(=O)=O)c3)cc2)n(-c2c(Cl)cccc2Cl)n1 [Example 956, 2-{1-(2,6-dichlorophenyl)-5-[3′-(methylsulfonyl)biphenyl-4-yl]-1H-pyrazol-3-yl}propan-2-ol] | < 1000 nM | 1000 to 10000 nM
15 | CC(C)(O)c1nn(-c2c(Cl)cccc2Cl)c(-c2ccc(-c3cccc(S(C)(=O)=O)c3)cc2)c1Cl [Example 957, 2-{4-chloro-1-(2,6-dichlorophenyl)-5-[3′-(methylsulfonyl)biphenyl-4-yl]-1H-pyrazol-3-yl}propan-2-ol] | < 1000 nM | < 1000 nM
16 | CC(C)(O)c1cc(-c2ccc(-c3cccc(S(C)(=O)=O)c3)cc2Cl)n(-c2c(Cl)cccc2Cl)n1 [Example 958, 2-{5-[3-chloro-3′-(methylsulfonyl)biphenyl-4-yl]-1-(2,6-dichlorophenyl)-1H-pyrazol-3-yl}propan-2-ol] | < 1000 nM | < 1000 nM
17 | CC(C)(O)c1nn(-c2c(Cl)cccc2Cl)c(-c2ccc(-c3cccc(S(C)(=O)=O)c3)cc2Cl)c1Cl [Example 959, 2-{4-chloro-5-[3-chloro-3′-(methysulfonyl)biphenyl-4-yl]-1-(2,6-dichlorophenyl)-1H-pyrazol-3-yl}propan-2-ol] | < 1000 nM | < 1000 nM
18 | Cc1cc(-c2cccc(S(C)(=O)=O)c2)ccc1-c1cc(C(C)(C)O)nn1-c1c(Cl)cccc1Cl [Example 960, 2-{1-(2,6-dichlorophenyl)-5-[3-methyl-3′-(methylsulfonyl)biphenyl-4-yl]-1H-pyrazol-3-yl}propan-2-ol] | < 1000 nM | < 1000 nM
19 | Cc1cc(-c2cc(C(C)(C)O)nn2-c2c(Cl)cccc2Cl)ccc1-c1cccc(S(C)(=O)=O)c1 [Example 961, 2-{1-(2,6-dichlorophenyl)-5-[2-methyl-3′-(methylsulfonyl)biphenyl-4-yl]-1H-pyrazol-3-yl}propan-2-ol] | 1000 to 10000 nM | < 1000 nM
20 | CC(C)(O)c1cc(-c2c(F)cccc2Cl)n(-c2ccc(-c3cccc(S(C)(=O)=O)c3)cc2)n1 [Example 962, 2-{5-(2-chloro-6-fluorophenyl)-1-[3′-(methylsulfonyl)biphenyl-4-yl]-1H-pyrazol-3-yl}propan-2-ol] | < 1000 nM | 1000 to 10000 nM
21 | CC(C)(O)c1cc(-c2c(Cl)cccc2Cl)n(-c2ccc(-c3cccc(S(C)(=O)=O)c3)cc2)n1 [Example 963, 2-{5-(2,6-dichlorophenyl)-1-[3′-(methylsulfonyl)biphenyl-4-yl]-1H-pyrazol-3-yl}propan-2-ol] | < 1000 nM | 1000 to 10000 nM
22 | CC(C)(O)c1nn(-c2ccc(-c3cccc(S(C)(=O)=O)c3)cc2F)c(-c2c(F)cccc2Cl)c1Cl [Example 964, 2-{4-chloro-5-(2-chloro-6-fluorophenyl)-1-[3-fluoro-3′-(methysulfonyl)biphenyl-4-yl]-1H-pyrazol-3-yl}propan-2-ol] | < 1000 nM | 1000 to 10000 nM
23 | CC(C)(O)c1cc(-c2c(Cl)cccc2Cl)n(-c2ccc(-c3cccc(S(C)(=O)=O)c3)cc2Cl)n1 [Example 965, 2-{1-[3-chloro-3′-(methylsulfonyl)biphenyl-4-yl]-5-(2,6-dichlorophenyl)-1H-pyrazol-3-yl}propan-2-ol] | < 1000 nM | 1000 to 10000 nM
24 | Cc1cc(-c2cccc(S(C)(=O)=O)c2)ccc1-n1nc(C(C)(C)O)cc1-c1c(Cl)cccc1Cl [Example 966, 2-{5-(2,6-dichlorophenyl)-1-[3-methyl-3′-(methylsulfonyl)biphenyl-4-yl]-1H-pyrazol-3-yl}propan-2-ol] | < 1000 nM | 1000 to 10000 nM
25 | Cc1cc(-c2cccc(S(C)(=O)=O)c2)ccc1-n1nc(C(C)(C)O)c(Cl)c1-c1c(Cl)cccc1Cl [Example 967, 2-{4-chloro-5-(2,6-dichlorophenyl)-1-[3-methyl-3′-(methylsulfonyl)biphenyl-4-yl]-1H-pyrazol-3-yl}propan-2-ol] | < 1000 nM | 1000 to 10000 nM
26 | Cc1cc(-c2cccc(S(C)(=O)=O)c2)ccc1-n1nc(C(C)(C)O)c(Cl)c1-c1c(F)cccc1Cl [Example 968, 2-{4-chloro-5-(2-chloro-6-fluorophenyl)-1-[3-methyl-3′-(methylsulfonyl)biphenyl-4-yl]-1H-pyrazol-3-yl}propan-2-ol] | < 1000 nM | > 10000 nM
27 | Cc1cc(-n2nc(C(C)(C)O)cc2-c2c(F)cccc2Cl)ccc1-c1cccc(S(C)(=O)=O)c1 [Example 969, 2-{5-(2-chloro-6-fluorophenyl)-1-[2-methyl-3′-(methylsulfonyl)biphenyl-4-yl]-1H-pyrazol-3-yl}propan-2-ol] | 1000 to 10000 nM | 1000 to 10000 nM
28 | Cc1cc(-n2nc(C(C)(C)O)cc2-c2c(Cl)cccc2Cl)ccc1-c1cccc(S(C)(=O)=O)c1 [Example 970, 2-{5-(2,6-dichlorophenyl)-1-[2-methyl-3′-(methylsulfonyl)biphenyl-4-yl]-1H-pyrazol-3-yl}propan-2-ol] | 1000 to 10000 nM | 1000 to 10000 nM
